Assay results taken from patent publication US9732067B2, “Compounds and methods for activating the apoptotic arm of the unfolded protein response” (University of Kansas, priority 2012, dated 2017).
Read-outs that look alike come from different tables or passages of the source.

Tests used:
MEF with wild-type CHOP = experiment: Proliferation / cytotoxicity (ATPLite) in MEF with wild-type CHOP; format: cell-based, mouse
Method: Several of the analogs derived from these changes were evaluated in secondary assays as they met the preliminary probe criteria for UPR-CHOP and UPR-XBP1 activity. Select compounds were assessed in a dose response manner for the ability to suppress proliferation in both the CHOP wild-type and CHOP knockout murine embryonic fibroblasts (−/− MEF KO CHOP)(Table 2).
It was determined whether ML291 and ML291 congeners would induce cell death (cytotoxicity as measured by ATPLite®, which measures production of ATP from living cells) in cells where these pathways are operant, but not activate them in the absence of the pathways.

HN30 = experiment: Proliferation, HN30; format: cell-based; settings: 24 hours, average of three experiments
Method: (§1) To determine whether ML291 could reduce the proliferation of malignant cells, a panel of OSCC (UMSCC23, A253, HN6, HN12, HN30, H460/T800) and ovarian cancer (RMG-1, TOV112D, A2780 and SKOV3) cell lines, were treated with increasing doses (0.15-20 μM) of ML291 for 24 hours (FIGS. 3A and 3B).

[1] = tested on: panel of OSCC and ovarian cancer cell lines; experiment: Proliferation, panel of OSCC and ovarian cancer cell lines; format: cell-based; settings: 24 hours, 0.15-20 μM; read-out: IC50 values in eight of the ten cell lines
Method: as §1

[2] = tested on: CHOP transcripts (apoptotic) compared to spliced XBP1 (adaptive); experiment: qRT-PCR transcription profile in OSCC cell lines UMSCC23, A253 and HN12; format: cell-based; settings: four hours treatment
From the text: While ML291 robustly and selectively activated the apoptotic (CHOP) arm of UPR in the engineered luciferase reporter CHO-K1 cells, while not activating reporter under the control of the adaptive arm (XBP1) promoters, direct confirmation of the selective activation of genes and pathways on the apoptotic UPR arm in a biologically relevant cell or cell line was needed. To determine whether or not ML291 could selectively activate the apoptotic (CHOP) arm of the UPR, relevant oral squamous cell carcinoma cell lines, UMSCC23, A253 and HN12, were treated with ML291 for four hours. The activation/induction of associated genes along the UPR sub-pathways were measured by quantitative real-time reverse-transcription PCR (qRT-PCR) analysis of cDNA pools generated from whole cell lysates. […] Furthermore, the simultaneous induction of the CHOP down stream target GADD34, but not the DNA excision and repair gene ERCC1 indicated ML291 was activating CHOP via the UPR and not DNA damage.

SMILES: O=C(Nc1ccc(S(=O)(=O)N2CCC(Cl)CC2)cc1)c1ccc([N+](=O)[O-])o1 [ML291, N-(4-((4-chloropiperidin-1-yl)sulfonyl)phenyl)-5-nitrofuran-2-carboxamide]
- shift of potency in MEF wild-type CHOP versus CHO-K1 cell reporter assays (MEF with wild-type CHOP): ~6 fold
- EC50 (MEF with wild-type CHOP; Mus musculus, Table 2, mean of replicates, EC50 and μM, read-out: Proliferation MEF wt CHOP): 4.77 ± 1.05 µM
- IC50 (MEF with wild-type CHOP; Mus musculus, Table 5, MEF, ATPLite): 4.77 ± 1.05 µM
- EC50 (MEF with wild-type CHOP; Mus musculus, read-out: CHOP wild-type EC50 (MEF)): 4.77 µM
- EC50 (MEF with wild-type CHOP; read-out: CHOP wild-type EC50 (MEF)): ~4.8 µM
- IC50 (HN30): 8.95 ± 1.06 µM
- IC50 [1]: 1.6 to 18.9 µM
- selectivity of CHOP transcripts compared to spliced XBP1 [2]: 5 fold
